Where two headings read alike, the source gives them in different places. Marks after values point to notes of the source that are not given here.
How the values were obtained:
[1] = system: liver homogenates; set-up: method as in PMID 34641310; conditions: ref 29; cited from earlier work
[2] = system: rat liver microsomes (RLM); assay: Aerobic incubation of nitroxides with rat liver microsomes and NADPH monitored by EPR; conditions: for Nitroxide recovered upon reoxidation with potassium ferricyanide: ferricyanide 1 mM added to whole system after 30 min incubation; for Initial rate of decrease, + Clo / Initial rate of decrease, + Clo (per P450): whole system + clotrimazole 25 μM; for Initial rate of decrease, + Clo / Initial rate of decrease, + Clo (per P450) / Initial rate of decrease, +DPI / Initial rate of decrease, +DPI (per P450) / Initial rate of decrease, -NADPH / Initial rate of decrease, -RLM: nitroxide 100 µM; for Initial rate of decrease, +DPI / Initial rate of decrease, +DPI (per P450): whole system + diphenyliodonium chloride 100 μM; for Initial rate of decrease, WS / Initial rate of decrease, WS (per P450): whole system: nitroxide 100 µM + RLM + NADPH, pH 7.4, 21 °C; for Initial rate of decrease, -NADPH: without NADPH; for Initial rate of decrease, -RLM: without RLM; for Decay in 30 min (conversion by P450): RLM + NADPH
[3] = cited from earlier work
[4] = Reduction of nitroxides by excess ascorbate monitored by stopped-flow EPR; format: physicochemical; conditions: potassium phosphate buffer 0.1 M, pH 7.4, equilibrated with air, 21 °C; This work
Text: A 4-bore AquaX quartz cell (Bruker) inserted into the cavity was connected to a Bio-Logic MPS-51 stop-flow apparatus with three syringes (Bio-Logic, Claix, France) controlled by the Bio-Logic MPS software. […] The initial second-order reaction rate constant of the reaction of nitroxides with ascorbate, k0 values was derived from experimental results as previously described.

[5] = system: rat liver microsomes (RLM); conditions: anaerobic; for EPR signal regenerated by reoxidation with potassium ferricyanide: ferricyanide 1 mM added to whole system after 30 min incubation (nitroxide 5: with simultaneous Clo 25 μM)
Procedure: Addition of NADPH to a final concentration of 1 mM started the reaction. Samples were mixed and transferred to glass microcapillary pipettes (50 μL, Hirschmann) that had been previously purged with N2.

[6] = reaction measured with ascorbate and glutathione mixtures
[7] = whole system + clotrimazole 25 μM, nitroxide 100 μM
[8] = whole system + diphenyliodonium chloride 100 μM, nitroxide 100 μM
[9] = whole system: nitroxide 100 μM + RLM + NADPH, pH 7.4, 21 °C

For `CCC1(CC)CC(CN)C(CC)(CC)N1[O]` (centres unmarked) [Compound 6, 3-(aminomethyl)-2,2,5,5-tetraethylpyrrolidineyloxyl], which “Decay in liver homogenates” value [1] is on record?
Its value is “significantly decayed”.

For `CCC1(CC)CC(CNC(=O)C[P+](c2ccccc2)(c2ccccc2)c2ccccc2)C(CC)(CC)N1[O].[Cl-]` (centres unmarked) [Compound 7, 3-(2-triphenylphosphonio)acetamidomethyl-2,2,5,5-tetraethylpyrrolidine-1-oxyl chloride], which “Decay in liver homogenates” value [1] is on record?
The value was “significantly decayed”.

Which results are given for `CC1(C)CC(C(=O)O)C(C)(C)N1[O]` (centres unmarked) [Nitroxide 2, 3-carboxy-2,2,5,5-tetramethyl-1-pyrrolidinyloxyl]?
Nitroxide recovered upon reoxidation with potassium ferricyanide [2]: 42%; Initial rate of decrease, + Clo [2]: 0.94 ± 0.09 nmol·min^−1·mg^−1 prot; Initial rate of decrease, + Clo (per P450) [2]: 0.24 ± 0.03 nmol·min^−1·nmol^−1 P450; Initial rate of decrease, +DPI [2]: 2.1 ± 0.3 nmol·min^−1·mg^−1 prot; Initial rate of decrease, +DPI (per P450) [2]: 0.54 ± 0.07 nmol·min^−1·nmol^−1 P450; Initial rate of decrease, WS [2]: 4.8 ± 0.8 nmol·min^−1·mg^−1 prot; Initial rate of decrease, WS (per P450) [2]: 1.2 ± 0.1 nmol·min^−1·nmol^−1 P450; Initial rate of decrease, -NADPH [2]: 0.0 ** nmol·min^−1·mg^−1 prot; Initial rate of decrease, -RLM [2]: 0.0 ** nmol·min^−1·mg^−1 prot; Initial second-order reaction rate constant k0 for reduction by excess ascorbate [3, 6]: 0.060 ± 0.003 ^a M^−1·s^−1; Initial second-order reaction rate constant k0 for reduction by excess ascorbate ([3]; ref 42): 0.079 ± 0.001 M⁻¹ s⁻¹; Initial second-order reaction rate constant k0 for reduction by excess ascorbate ([3]; ref 70): 0.11 ± 0.01 M⁻¹ s⁻¹; Initial second-order reaction rate constant k0 for reduction by excess ascorbate [4]: 0.072 ± 0.003 M⁻¹ s⁻¹

With `CCC1(CC)CC(C(=O)O)C(CC)(CC)N1[O]` (centres unmarked) [Nitroxide 3, 3-carboxy-2,2,5,5-tetraethyl-1-pyrrolidinyloxyl] as the compound, how does the “Decay in 30 min (conversion by P450)” value [2] read?
Its value is 5–10%.

And the “Nitroxide recovered upon reoxidation with potassium ferricyanide” value (shortened to “Nitroxide recovered upon reoxidation”) [2]?
Its value is “not the case”.

What about the “Initial rate of decrease, + Clo” value [2] of the same compound?
The value was 0.0 ** nmol·min^−1·mg^−1 prot.

What about the “Initial rate of decrease, +DPI” value [2] of the same compound?
Its value is 0.0 ** nmol·min^−1·mg^−1 prot.

What about the “Initial rate of decrease, WS” value [2] of the same compound?
The value was 1.8 ± 0.2 nmol·min^−1·mg^−1 prot.

And the “Initial rate of decrease, WS (per P450)” value [2]?
The value was 0.46 ± 0.05 nmol·min^−1·nmol^−1 P450.

What about the “Initial rate of decrease, -NADPH” value [2] of the same compound?
The value was 0.0 ** nmol·min^−1·mg^−1 prot.

And the “Initial rate of decrease, -RLM” value [2]?
The value was 0.0 ** nmol·min^−1·mg^−1 prot.

And the “Initial second-order reaction rate constant k0 for reduction by excess ascorbate” value [3, 6]?
Its value is 0.0011 ± 0.0002 ^a M^−1·s^−1.

And the “Initial second-order reaction rate constant k0 for reduction by excess ascorbate” value ([3]; ref 30)?
The value was no more than 0.001 M⁻¹ s⁻¹.

What about the “Initial second-order reaction rate constant k0 for reduction by excess ascorbate” value ([3]; ref 42) of the same compound?
The value was 0.002 ± 0.001 M⁻¹ s⁻¹.

And the “EPR signal regenerated by reoxidation with potassium ferricyanide” value (“EPR signal regenerated by reoxidation” for short) [5]?
The value was “hardly detectable”.

And the “Initial second-order reaction rate constant k0 for reduction by excess ascorbate” value [4]?
Its value is 0.0011 ± 0.0002 M⁻¹ s⁻¹.

With `CC1(C)CC(=O)CC(C)(C)N1[O]` [Nitroxide 1, 2,2,6,6-tetramethyl-4-oxo(piperidine-1-yloxyl) radical, reference compound] as the compound, how does the “Nitroxide recovered upon reoxidation” value [2] read?
The value was 15%.

What about the “Initial rate of decrease, + Clo” value [2] of the same compound?
The value was 1.2 ± 0.3 nmol·min^−1·mg^−1 prot.

What about the “Initial rate of decrease, + Clo (per P450)” value [2] of the same compound?
The value was 0.30 ± 0.09 nmol·min^−1·nmol^−1 P450.

What about the “Initial rate of decrease, +DPI” value [2] of the same compound?
Its value is 5.1 ± 0.3 nmol·min^−1·mg^−1 prot.

And the “Initial rate of decrease, +DPI (per P450)” value [2]?
Its value is 1.31 ± 0.07 nmol·min^−1·nmol^−1 P450.

What about the “Initial rate of decrease, WS” value [2] of the same compound?
The value was 11.1 ± 0.8 nmol·min^−1·mg^−1 prot.

And the “Initial rate of decrease, WS (per P450)” value [2]?
Its value is 2.8 ± 0.2 nmol·min^−1·nmol^−1 P450.

What about the “Initial rate of decrease, -NADPH” value [2] of the same compound?
The value was 0.0 *** nmol·min^−1·mg^−1 prot.

And the “Initial rate of decrease, -RLM” value [2]?
The value was 0.0 *** nmol·min^−1·mg^−1 prot.

And the “Initial second-order reaction rate constant k0 for reduction by excess ascorbate” value [3, 6]?
Its value is 7.2 ± 0.8 ^a M^−1·s^−1.

What about the “Initial second-order reaction rate constant k0 for reduction by excess ascorbate” value ([3]; ref 42) of the same compound?
Its value is 5.75 ± 0.04 M⁻¹ s⁻¹.

And the “Initial second-order reaction rate constant k0 for reduction by excess ascorbate” value ([3]; ref 57)?
Its value is 6.9 ± 0.7 M⁻¹ s⁻¹.

What about the “EPR signal regenerated by reoxidation” value [5] of the same compound?
The value was 37%.

And the “Initial rate of decrease, + Clo” value [5, 7]?
The value was 4.3 ± 0.4 nmol·min^−1·mg^−1·prot.

What about the “Initial rate of decrease, + Clo (per P450)” value [5, 7] of the same compound?
The value was 1.1 ± 0.2 nmol·min^−1·nmol^−1·P450.

And the “Initial rate of decrease, +DPI” value [5, 8]?
Its value is 2.7 ± 0.3 nmol·min^−1·mg^−1·prot.

What about the “Initial rate of decrease, +DPI (per P450)” value [5, 8] of the same compound?
The value was 0.70 ± 0.08 nmol·min^−1·nmol^−1·P450.

And the “Initial rate of decrease, WS” value [5, 9]?
The value was 19.3 ± 0.9 nmol·min^−1·mg^−1·prot.

What about the “Initial rate of decrease, WS (per P450)” value [5, 9] of the same compound?
The value was 5.0 ± 0.5 nmol·min^−1·nmol^−1·P450.

What about the “Initial rate of decrease, -NADPH” value ([5]; without NADPH, nitroxide 100 μM) of the same compound?
The value was 0.0 ** nmol·min^−1·mg^−1·prot.

What about the “Initial rate of decrease, -RLM” value ([5]; without RLM, nitroxide 100 μM) of the same compound?
The value was 0.0 ** nmol·min^−1·mg^−1·prot.

What about the “Initial second-order reaction rate constant k0 for reduction by excess ascorbate” value [4] of the same compound?
The value was 6.9 ± 0.1 M⁻¹ s⁻¹.

For `CCC1(CC)c2ccc(C(=O)O)cc2C(CC)(CC)N1[O]` [Nitroxide 5, 5-carboxy-1,1,3,3-tetraethyl-2-isoindolinyloxyl], which “New six-line paramagnetic species formed, share of the initial nitroxide” value ([2]; 300 μM nitroxide, RLM 30 μM P450, 2 mM NADPH, 21 °C, at 10 min (maximum)) is on record?
Its value is 7%.

What about the “Nitroxide recovered upon reoxidation” value [2] of the same compound?
Its value is “not the case”.

What about the “Initial rate of decrease, + Clo” value [2] of the same compound?
Its value is 0.0 *** nmol·min^−1·mg^−1 prot.

And the “Initial rate of decrease, +DPI” value [2]?
Its value is 0.0 *** nmol·min^−1·mg^−1 prot.

What about the “Initial rate of decrease, WS” value [2] of the same compound?
The value was 3.4 ± 0.2 nmol·min^−1·mg^−1 prot.

And the “Initial rate of decrease, WS (per P450)” value [2]?
The value was 0.88 ± 0.05 nmol·min^−1·nmol^−1 P450.

And the “Initial rate of decrease, -NADPH” value [2]?
Its value is 0.0 *** nmol·min^−1·mg^−1 prot.

What about the “Initial rate of decrease, -RLM” value [2] of the same compound?
The value was 0.0 *** nmol·min^−1·mg^−1 prot.

And the “EPR signal regenerated by reoxidation” value [5]?
The value was 30%.

And the “Initial second-order reaction rate constant k0 for reduction by excess ascorbate” value [4]?
Its value is 0.02 ± 0.01 M⁻¹ s⁻¹.

Which “Decay in 30 min (conversion by P450)” value [2] does the source give for `CCC1(CC)C=C(C(=O)O)C(CC)(CC)N1[O]` [Nitroxide 4, 3-carboxy-2,2,5,5-tetrethyl-pyrrolinyloxyl] here?
Its value is 5–10%.

What about the “Nitroxide recovered upon reoxidation” value [2] of the same compound?
The value was “not the case”.

What about the “Initial rate of decrease, + Clo” value [2] of the same compound?
Its value is 0.0 ** nmol·min^−1·mg^−1 prot.

And the “Initial rate of decrease, +DPI” value [2]?
Its value is 0.0 ** nmol·min^−1·mg^−1 prot.

What about the “Initial rate of decrease, WS” value [2] of the same compound?
The value was 0.84 ± 0.09 nmol·min^−1·mg^−1 prot.

What about the “Initial rate of decrease, WS (per P450)” value [2] of the same compound?
The value was 0.22 ± 0.03 nmol·min^−1·nmol^−1 P450.

What about the “Initial rate of decrease, -NADPH” value [2] of the same compound?
Its value is 0.0 ** nmol·min^−1·mg^−1 prot.

And the “Initial rate of decrease, -RLM” value [2]?
The value was 0.0 ** nmol·min^−1·mg^−1 prot.

What about the “Initial second-order reaction rate constant k0 for reduction by excess ascorbate” value [3, 6] of the same compound?
The value was 0.00122 ± 0.00003 ^a M^−1·s^−1.

And the “EPR signal regenerated by reoxidation” value [5]?
The value was “hardly detectable”.

And the “Initial second-order reaction rate constant k0 for reduction by excess ascorbate” value [4]?
The value was 0.0077 ± 0.0009 M⁻¹ s⁻¹.

— publication PMC9952648, “Structural Features Governing the Metabolic Stability of Tetraethyl-Substituted Nitroxides in Rat Liver Microsomes” (Antioxidants, 2023)
